The target in one assay is JAK-2 enzyme (Homo sapiens, UniProt O60674). Put plainly: JAK2 inhibition assay (radiometric 33P filter assay). The format is biochemical. The following applies: 15 μM poly(Glu)4Tyr, 12 μM ATP; read-out: JAK2 inhibition data (Ki). As for the experimental part: (§1) Compounds were screened for their ability to inhibit JAK using the assay shown below. Reactions were carried out in a kinase buffer containing 100 mM HEPES (pH 7.4), 1 mM DTT, 10 mM MgCl2, 25 mM NaCl, and 0.01% BSA.
Chain of JAK-2 enzyme (O60674 whole entry, species assumed): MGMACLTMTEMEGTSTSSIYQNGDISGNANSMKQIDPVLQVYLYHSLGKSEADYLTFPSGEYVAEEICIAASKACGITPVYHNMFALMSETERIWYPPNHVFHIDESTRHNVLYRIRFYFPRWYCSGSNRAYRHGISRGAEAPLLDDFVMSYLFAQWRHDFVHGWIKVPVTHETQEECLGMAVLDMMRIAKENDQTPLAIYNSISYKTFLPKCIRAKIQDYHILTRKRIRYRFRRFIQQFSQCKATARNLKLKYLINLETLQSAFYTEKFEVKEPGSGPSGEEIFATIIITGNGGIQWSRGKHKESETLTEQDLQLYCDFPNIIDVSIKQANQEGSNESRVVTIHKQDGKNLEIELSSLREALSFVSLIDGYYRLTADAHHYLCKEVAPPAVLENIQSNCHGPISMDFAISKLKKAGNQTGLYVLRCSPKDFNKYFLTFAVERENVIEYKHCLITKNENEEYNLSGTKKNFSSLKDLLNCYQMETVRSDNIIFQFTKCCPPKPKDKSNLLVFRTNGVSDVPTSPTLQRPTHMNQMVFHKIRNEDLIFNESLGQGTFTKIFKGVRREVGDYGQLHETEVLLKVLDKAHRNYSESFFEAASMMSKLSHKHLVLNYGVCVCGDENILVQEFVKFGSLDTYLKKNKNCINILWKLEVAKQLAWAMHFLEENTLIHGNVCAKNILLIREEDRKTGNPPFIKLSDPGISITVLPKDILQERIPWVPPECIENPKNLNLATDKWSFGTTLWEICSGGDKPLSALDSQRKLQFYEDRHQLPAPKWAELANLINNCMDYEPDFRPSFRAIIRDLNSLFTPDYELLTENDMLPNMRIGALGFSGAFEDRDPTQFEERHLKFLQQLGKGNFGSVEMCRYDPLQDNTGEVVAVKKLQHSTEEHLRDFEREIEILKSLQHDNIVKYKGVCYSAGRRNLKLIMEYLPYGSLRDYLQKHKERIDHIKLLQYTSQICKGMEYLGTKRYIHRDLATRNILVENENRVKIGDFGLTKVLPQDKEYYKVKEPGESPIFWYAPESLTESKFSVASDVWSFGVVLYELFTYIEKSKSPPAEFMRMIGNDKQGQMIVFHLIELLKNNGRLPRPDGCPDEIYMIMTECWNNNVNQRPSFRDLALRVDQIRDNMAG
(§2) Substrate concentrations in the assay were 5 μM ATP (200 uCi/μmole ATP) and 1 μM poly(Glu)4Tyr. Reactions were carried out at 25° C. and 1 nM JAK3.
(§3) To each well of a 96 well polycarbonate plate was added 1.5 μl of a candidate JAK3 inhibitor along with 50 μl of kinase buffer containing 2 μM poly(Glu)4Tyr and 10 μM ATP. This was then mixed and 50 μl of kinase buffer containing 2 nM JAK3 enzyme was added to start the reaction. After 20 minutes at room temperature (25° C.), the reaction was stopped with 50 μl of 20% trichloroacetic acid (TCA) that also contained 0.4 mM ATP. The entire contents of each well were then transferred to a 96 well glass fiber filter plate using a TomTek Cell Harvester. After washing, 60 μl of scintillation fluid was added and ^33P incorporation detected on a Perkin Elmer TopCount.
The assays were as described above in Example 25 except that JAK-2 enzyme was used, the final poly(Glu)4Tyr concentration was 15 μM, and final ATP concentration was 12 μM.

Another assay concerns the target T1, JAK3 (Homo sapiens, UniProt P52333).
T1 sequence (P52333 1-1124): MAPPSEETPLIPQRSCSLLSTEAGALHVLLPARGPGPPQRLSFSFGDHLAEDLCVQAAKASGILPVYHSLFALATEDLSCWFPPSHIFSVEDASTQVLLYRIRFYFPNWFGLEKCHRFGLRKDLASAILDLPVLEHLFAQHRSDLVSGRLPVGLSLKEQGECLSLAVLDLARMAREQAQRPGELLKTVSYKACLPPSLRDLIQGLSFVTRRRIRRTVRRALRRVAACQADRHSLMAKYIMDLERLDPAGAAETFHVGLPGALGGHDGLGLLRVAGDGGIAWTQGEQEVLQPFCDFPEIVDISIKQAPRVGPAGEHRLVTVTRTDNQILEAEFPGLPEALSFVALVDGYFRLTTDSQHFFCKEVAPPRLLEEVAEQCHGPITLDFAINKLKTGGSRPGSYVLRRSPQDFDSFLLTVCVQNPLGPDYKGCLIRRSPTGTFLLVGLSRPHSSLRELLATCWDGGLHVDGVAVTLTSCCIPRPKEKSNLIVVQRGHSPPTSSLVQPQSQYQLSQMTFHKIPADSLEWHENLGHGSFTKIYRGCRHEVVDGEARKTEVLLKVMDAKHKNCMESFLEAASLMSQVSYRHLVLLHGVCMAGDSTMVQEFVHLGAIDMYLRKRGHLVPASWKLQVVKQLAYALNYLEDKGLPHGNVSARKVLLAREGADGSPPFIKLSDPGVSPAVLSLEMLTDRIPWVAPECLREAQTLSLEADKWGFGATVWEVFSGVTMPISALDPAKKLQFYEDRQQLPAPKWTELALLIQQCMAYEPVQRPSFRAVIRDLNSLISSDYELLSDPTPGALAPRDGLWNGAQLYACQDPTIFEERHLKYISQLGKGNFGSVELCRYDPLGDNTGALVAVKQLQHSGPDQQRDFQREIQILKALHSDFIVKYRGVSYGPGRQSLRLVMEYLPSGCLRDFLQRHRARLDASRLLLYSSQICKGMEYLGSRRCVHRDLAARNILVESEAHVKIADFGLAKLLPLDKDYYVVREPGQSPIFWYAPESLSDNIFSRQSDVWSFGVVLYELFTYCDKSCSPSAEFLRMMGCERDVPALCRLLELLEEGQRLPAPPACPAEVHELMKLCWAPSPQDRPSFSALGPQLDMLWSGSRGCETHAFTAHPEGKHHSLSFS
The experiment in a line: JAK3 inhibition assay (radiometric 33P filter assay). The format is biochemical. Conditions: 1 μM poly(Glu)4Tyr, 5 μM ATP, 1 nM JAK3, 25° C.; read-out: JAK3 inhibition data (Ki). How it is done: as §1, §2, §3

Ki data for 36 compounds are collected here from patent publication US7329652B2, “Diaminotriazole compounds useful as protein kinase inhibitors” (Vertex Pharamaceuticals Incorporated, priority 2004, dated 2008).

Each structure is given as a SMILES string.

For `CC(=O)N1[C@H](C)CN(c2cc(-n3nc(Nc4ccc(N5CCN(C(=O)OCC(C)C)CC5)cc4)nc3N)ccn2)C[C@@H]1C` [Compound 128], the Ki at JAK-2 enzyme and at JAK3 was less than 50 nM each time.

For the compound `CC(=O)N1CCCN(c2cc(-n3nc(Nc4ccc(N(C)C(=O)OC(C)C)cc4)nc3N)ncn2)CC1` [Compound 130], the Ki on JAK-2 enzyme and on JAK3 was less than 50 nM in each case.

Take `CC(=O)Nc1ccc(Nc2nc(N)n(-c3cc(N4C[C@@H](C)N(C(C)=O)[C@@H](C)C4)ncn3)n2)cc1` [Compound 112]: the inhibition constant Ki at JAK-2 enzyme and at JAK3 was less than 50 nM throughout.

Regarding `CC(=O)N1[C@H](C)CN(c2cc(-n3nc(Nc4ccc(NC(=O)CC(C)C)cc4)nc3N)ccn2)C[C@@H]1C` [Compound 111], the Ki at JAK-2 enzyme and on JAK3 was less than 50 nM in each case.

Turning to `CC(=O)N1[C@H](C)CN(c2cc(-n3nc(Nc4ccc(N5CCN(C(=O)NC6CCCCC6)CC5)cc4)nc3N)ncn2)C[C@@H]1C` [Compound 64], the Ki at JAK-2 enzyme and at JAK3 was less than 50 nM in each case.

Regarding `CCCOC(=O)N1CCN(c2ccc(Nc3nc(N)n(-c4ccnc(N5CCCN(C(=O)OCCC)CC5)c4)n3)cc2)CC1` [Compound 160], the inhibition constant Ki at JAK-2 enzyme and on JAK3 was 50 to 500 nM each time.

With `CCCOC(=O)N1CCN(c2ccc(Nc3nc(N)n(-c4ccnc(N5C[C@@H](C)N(C(C)=O)[C@@H](C)C5)c4)n3)cc2)CC1` [Compound 139], the Ki on JAK-2 enzyme and at JAK3 was less than 50 nM in each case.

For `CC(=O)N1[C@H](C)CN(c2cc(-n3nc(Nc4ccc(N5CCOCC5)cc4)nc3N)ccn2)C[C@@H]1C` [Compound 17], the inhibition constant (Ki) on JAK-2 enzyme and at JAK3 was less than 50 nM in each case.

`CCCNC(=O)Nc1ccc(Nc2nc(N)n(-c3ccnc(N4C[C@@H](C)N(C(C)=O)[C@@H](C)C4)c3)n2)cc1` [Compound 106]: the Ki on JAK-2 enzyme and on JAK3 was less than 50 nM each time.

For `CC(=O)N1[C@H](C)CN(c2cc(-n3nc(Nc4ccc(N5CCN(C(=O)OC(C)C)CC5)cc4)nc3N)ccn2)C[C@@H]1C` [Compound 143], the inhibition constant Ki on JAK-2 enzyme and on JAK3 was less than 50 nM in each case.

Consider `CCCOC(=O)Nc1ccc(Nc2nc(N)n(-c3ccnc(N4CCCN(C(C)=O)CC4)c3)n2)cc1` [Compound 172], for which the inhibition constant (Ki) on JAK-2 enzyme was 50 to 500 nM; at JAK3 it was less than 50 nM.

Regarding `CC(=O)N1CCCN(c2cc(-n3nc(Nc4ccc(N(C)C(=O)OCC(C)C)cc4)nc3N)ncn2)CC1` [Compound 131], the inhibitory constant (Ki) on JAK-2 enzyme and at JAK3 was less than 50 nM in each case.

For `CCCOC(=O)Nc1ccc(Nc2nc(N)n(-c3ccnc(N4C[C@@H](C)N(C(C)=O)[C@@H](C)C4)c3)n2)cc1` [Compound 102], the Ki at JAK-2 enzyme and on JAK3 was less than 50 nM each time.

As for `CCOC(=O)Nc1ccc(Nc2nc(N)n(-c3cc(N4C[C@@H](C)N(C(C)=O)[C@@H](C)C4)ncn3)n2)cc1` [Compound 76], the inhibition constant Ki on JAK-2 enzyme and at JAK3 was less than 50 nM each time.

Take `CCCOC(=O)N1CCCN(c2cc(-n3nc(Nc4ccc(N5CCN(C(=O)OCC)CC5)cc4)nc3N)ccn2)CC1` [Compound 150]: the inhibition constant (Ki) on JAK-2 enzyme and at JAK3 was 50 to 500 nM in each case.

On to `CC(=O)N1[C@H](C)CN(c2cc(-n3nc(Nc4ccc(NC(=O)Nc5ccc(C(F)(F)F)cc5)cc4)nc3N)ncn2)C[C@@H]1C` [Compound 74], for which the inhibition constant (Ki) on JAK-2 enzyme and on JAK3 was less than 50 nM in each case.

`CCOC(=O)CCNC(=O)N1CCN(c2ccc(Nc3nc(N)n(-c4cc(N5C[C@@H](C)N(C(C)=O)[C@@H](C)C5)ncn4)n3)cc2)CC1` [Compound 65]: the Ki on JAK-2 enzyme and on JAK3 was less than 50 nM in each case.

`CCCOC(=O)N1CCN(c2ccc(Nc3nc(N)n(-c4cc(N5CCCN(C(=O)CC#N)CC5)ncn4)n3)cc2)CC1` [Compound 125]: the inhibition constant (Ki) on JAK-2 enzyme and at JAK3 was less than 50 nM in each case.

Take `CC(=O)N1CCCN(c2cc(-n3nc(Nc4ccc(NC(=O)O[C@@H]5C[C@@H](C)CC[C@@H]5C(C)C)cc4)nc3N)ncn2)CC1` [Compound 98]: the inhibition constant Ki on JAK-2 enzyme and at JAK3 was 50 to 500 nM throughout.

Regarding `CC(=O)N1[C@H](C)CN(c2cc(-n3nc(Nc4ccc(N5CCN(C(=O)OCC(C)(C)C)CC5)cc4)nc3N)ncn2)C[C@@H]1C` [Compound 57], the inhibition constant (Ki) on JAK-2 enzyme and at JAK3 was less than 50 nM each time.

Regarding `CC(=O)N1CCCN(c2cc(-n3nc(Nc4ccc(N5CCN(C(=O)C6CC6)CC5)cc4)nc3N)ncn2)CC1` [Compound 39], the inhibition constant Ki on JAK-2 enzyme and at JAK3 was less than 50 nM throughout.

Regarding `CC(=O)N1CCCN(c2cc(-n3nc(Nc4ccc(N5CCN(C(=O)Oc6ccc(C)cc6)CC5)cc4)nc3N)ncn2)CC1` [Compound 51], the inhibitory constant (Ki) on JAK-2 enzyme and at JAK3 was less than 50 nM in each case.

For `CCS(=O)(=O)N1CCCN(c2cc(-n3nc(Nc4ccc(N5CCN(C(=O)OC(C)C)CC5)cc4)nc3N)ccn2)CC1` [Compound 169], the inhibition constant (Ki) at JAK-2 enzyme and at JAK3 was 50 to 500 nM throughout.

As to `CC(=O)N1CCCN(c2cc(-n3nc(Nc4ccc(NC(=O)C5CCC(C)CC5)cc4)nc3N)ncn2)CC1` (stereo not drawn) [Compound 24], the Ki on JAK-2 enzyme and on JAK3 was less than 50 nM throughout.

For `CC(=O)N1CCCN(c2cc(-n3nc(Nc4ccc(NC(=O)OCC(C)(C)C)cc4)nc3N)ccn2)CC1` [Compound 176], the Ki on JAK-2 enzyme and on JAK3 was 50 to 500 nM in each case.

Regarding `COC1CCC(C(=O)Nc2ccc(Nc3nc(N)n(-c4cc(N5CCCN(C(C)=O)CC5)ncn4)n3)cc2)CC1` (stereo not drawn) [Compound 31], the inhibition constant (Ki) on JAK-2 enzyme and at JAK3 was less than 50 nM throughout.

As to `CC(=O)N1CCCN(c2cc(-n3nc(Nc4ccc(NC(=O)NC5CCCCC5)cc4)nc3N)ncn2)CC1` [Compound 88], the Ki on JAK-2 enzyme and at JAK3 was less than 50 nM each time.

For the compound `CC(=O)N1[C@H](C)CN(c2cc(-n3nc(Nc4ccc(NC(=O)OC(C)(C)C)cc4)nc3N)ncn2)C[C@@H]1C` [Compound 84], the Ki at JAK-2 enzyme and on JAK3 was less than 50 nM each time.

As for `CCOC(=O)N(C)c1ccc(Nc2nc(N)n(-c3cc(N4CCCN(C(C)=O)CC4)ncn3)n2)cc1` [Compound 127], the Ki on JAK-2 enzyme and at JAK3 was less than 50 nM in each case.

In the case of `CC(=O)N1CCCN(c2cc(-n3nc(Nc4ccc(N5CCN(C(=O)OCC(C)C)CC5)cc4)nc3N)ncn2)CC1` [Compound 50], the Ki on JAK-2 enzyme and on JAK3 was less than 50 nM each time.

In the case of `CCN(CC)c1ccc(Nc2nc(N)n(-c3cc(N4CCCN(C(C)=O)CC4)ncn3)n2)cc1` [Compound 12], the Ki at JAK-2 enzyme and at JAK3 was less than 50 nM throughout.

As for `CC(=O)N1[C@H](C)CN(c2cc(-n3nc(Nc4ccc(NC(=O)OC(C)C)cc4)nc3N)ccn2)C[C@@H]1C` [Compound 103], the Ki at JAK-2 enzyme and on JAK3 was less than 50 nM in each case.

With `CCCOC(=O)N1CCN(c2ccc(Nc3nc(N)n(-c4ccnc(N5CCCN(S(C)(=O)=O)CC5)c4)n3)cc2)CC1` [Compound 162], the inhibition constant (Ki) at JAK-2 enzyme and on JAK3 was 50 to 500 nM each time.

With `CC(=O)N1CCCN(c2cc(-n3nc(Nc4ccc(N5CCOCC5)cc4)nc3N)ncn2)CC1` [Compound 2], the inhibition constant (Ki) at JAK-2 enzyme and at JAK3 was less than 50 nM throughout.

Consider `CC(=O)N1[C@H](C)CN(c2cc(-n3nc(Nc4ccc(N5CCN(C(=O)OCC(C)(C)C)CC5)cc4)nc3N)ccn2)C[C@@H]1C` [Compound 142], for which the Ki at JAK-2 enzyme and at JAK3 was less than 50 nM in each case.

In the case of `CC(=O)N1CCCN(c2cc(-n3nc(Nc4ccc(NC(=O)c5ccoc5)cc4)nc3N)ncn2)CC1` [Compound 29], the Ki at JAK-2 enzyme and on JAK3 was less than 50 nM throughout.

The term Ki denotes the equilibrium dissociation constant of an inhibitor or competing ligand from its target.
